Experiments:
[1] = target: RAF proto-oncogene serine/threonine-protein kinase (Homo sapiens, UniProt P04049); experiment: Inhibition of human CRAF using MEK1 as substrate by [gamma-33P]-ATP assay
[2] = target: Serine/threonine-protein kinase B-raf (Homo sapiens, UniProt P15056, V600E); experiment: Inhibition of human BRAF V600E mutant using MEK1 as substrate by […] assay
[3] = target: Serine/threonine-protein kinase B-raf (Homo sapiens, UniProt P15056); experiment: Inhibition of human BRAF using MEK1 as substrate by […] assay
Serine/threonine-protein kinase B-raf (Homo sapiens, UniProt P15056), sequence (P15056 whole entry): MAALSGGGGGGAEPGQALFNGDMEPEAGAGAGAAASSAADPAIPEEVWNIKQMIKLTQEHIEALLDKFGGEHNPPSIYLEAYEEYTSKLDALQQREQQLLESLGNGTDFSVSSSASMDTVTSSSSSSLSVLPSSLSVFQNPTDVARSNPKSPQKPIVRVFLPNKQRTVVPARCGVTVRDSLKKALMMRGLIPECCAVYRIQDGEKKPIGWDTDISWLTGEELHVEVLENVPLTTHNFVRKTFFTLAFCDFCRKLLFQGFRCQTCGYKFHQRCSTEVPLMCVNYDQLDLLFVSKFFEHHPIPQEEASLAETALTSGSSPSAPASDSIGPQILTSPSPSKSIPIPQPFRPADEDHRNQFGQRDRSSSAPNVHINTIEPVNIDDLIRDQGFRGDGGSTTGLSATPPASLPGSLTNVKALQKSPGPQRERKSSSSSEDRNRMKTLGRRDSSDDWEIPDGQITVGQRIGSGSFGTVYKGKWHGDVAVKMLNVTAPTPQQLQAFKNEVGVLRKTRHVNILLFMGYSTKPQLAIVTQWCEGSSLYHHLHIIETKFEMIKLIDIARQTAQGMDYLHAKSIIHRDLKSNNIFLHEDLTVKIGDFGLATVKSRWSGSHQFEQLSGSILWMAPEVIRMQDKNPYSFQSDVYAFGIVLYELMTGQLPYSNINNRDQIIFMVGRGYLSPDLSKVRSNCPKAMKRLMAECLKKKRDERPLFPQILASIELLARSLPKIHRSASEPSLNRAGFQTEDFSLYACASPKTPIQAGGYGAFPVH

L132 = experiment: Cytotoxicity against human L132 cells assessed as reduction in cell viability by MTT assay; assay type: cell-based
SK-MEL-28 [4] = experiment: Cytotoxicity against human SK-MEL-28 cells assessed as reduction in cell viability by MTT assay; assay type: functional, cell-based
A-375 = experiment: Cytotoxicity against human A-375 cells assessed as reduction in cell viability by MTT assay; assay type: functional, cell-based
MDA-MB-468 = experiment: Cytotoxicity against human MDA-MB-468 cells assessed as cell viability at 10 uM incubated for 48 hrs by sulforhodamine B assay relative to control; assay type: functional; details: read-out: Activity
T47D = experiment: Cytotoxicity against human T47D cells assessed as cell viability at 10 uM incubated for 48 hrs by sulforhodamine B assay relative to control; assay type: functional; details: read-out: Activity
SN12C = experiment: Cytotoxicity against human SN12C cells assessed as cell viability at 10 uM incubated for 48 hrs by sulforhodamine B assay relative to control; assay type: functional; details: read-out: Activity
ACHN = experiment: Cytotoxicity against human ACHN cells assessed as cell viability at 10 uM incubated for 48 hrs by sulforhodamine B assay relative to control; assay type: functional; details: read-out: Activity
786-0 = experiment: Cytotoxicity against human 786-0 cells assessed as cell viability at 10 uM incubated for 48 hrs by sulforhodamine B assay relative to control; assay type: functional; details: read-out: Activity
SK-OV-3 = experiment: Cytotoxicity against human SK-OV-3 cells assessed as cell viability at 10 uM incubated for 48 hrs by sulforhodamine B assay relative to control; assay type: functional; details: read-out: Activity
OVCAR-4 = experiment: Cytotoxicity against human OVCAR-4 cells assessed as cell viability at 10 uM incubated for 48 hrs by sulforhodamine B assay relative to control; assay type: functional; details: read-out: Activity
OVCAR-3 = experiment: Cytotoxicity against human OVCAR-3 cells assessed as cell viability at 10 uM incubated for 48 hrs by sulforhodamine B assay relative to control; assay type: functional; details: read-out: Activity
UACC-62 = experiment: Cytotoxicity against human UACC-62 cells assessed as cell viability at 10 uM incubated for 48 hrs by sulforhodamine B assay relative to control; assay type: functional; details: read-out: Activity
SK-MEL-28 [5] = experiment: Cytotoxicity against human SK-MEL-28 cells assessed as cell viability at 10 uM incubated for 48 hrs by sulforhodamine B assay relative to control; assay type: functional; details: read-out: Activity
CCRF-CEM = experiment: Cytotoxicity against human CCRF-CEM cells assessed as cell viability at 10 uM incubated for 48 hrs by sulforhodamine B assay relative to control; assay type: functional; details: read-out: Activity
HL-60(TB) = experiment: Cytotoxicity against human HL-60(TB) cells assessed as cell viability at 10 uM incubated for 48 hrs by sulforhodamine B assay relative to control; assay type: functional; details: read-out: Activity
K562 = experiment: Cytotoxicity against human K562 cells assessed as cell viability at 10 uM incubated for 48 hrs by sulforhodamine B assay relative to control; assay type: functional; details: read-out: Activity
MOLT-4 = experiment: Cytotoxicity against human MOLT-4 cells assessed as cell viability at 10 uM incubated for 48 hrs by sulforhodamine B assay relative to control; assay type: functional; details: read-out: Activity
NCI-H460 = experiment: Cytotoxicity against human NCI-H460 cells assessed as cell viability at 10 uM incubated for 48 hrs by sulforhodamine B assay relative to control; assay type: functional; details: read-out: Activity
COLO 205 = experiment: Cytotoxicity against human COLO 205 cells assessed as cell viability at 10 uM incubated for 48 hrs by sulforhodamine B assay relative to control; assay type: functional; details: read-out: Activity
HCT-29 = experiment: Cytotoxicity against human […] cells assessed as cell viability at 10 uM incubated for 48 hrs by sulforhodamine B assay relative to control; assay type: functional; details: read-out: Activity
KM12 = experiment: Cytotoxicity against human KM12 cells assessed as cell viability at 10 uM incubated for 48 hrs by sulforhodamine B assay relative to control; assay type: functional; details: read-out: Activity

RAF proto-oncogene serine/threonine-protein kinase, sequence (P04049 whole entry): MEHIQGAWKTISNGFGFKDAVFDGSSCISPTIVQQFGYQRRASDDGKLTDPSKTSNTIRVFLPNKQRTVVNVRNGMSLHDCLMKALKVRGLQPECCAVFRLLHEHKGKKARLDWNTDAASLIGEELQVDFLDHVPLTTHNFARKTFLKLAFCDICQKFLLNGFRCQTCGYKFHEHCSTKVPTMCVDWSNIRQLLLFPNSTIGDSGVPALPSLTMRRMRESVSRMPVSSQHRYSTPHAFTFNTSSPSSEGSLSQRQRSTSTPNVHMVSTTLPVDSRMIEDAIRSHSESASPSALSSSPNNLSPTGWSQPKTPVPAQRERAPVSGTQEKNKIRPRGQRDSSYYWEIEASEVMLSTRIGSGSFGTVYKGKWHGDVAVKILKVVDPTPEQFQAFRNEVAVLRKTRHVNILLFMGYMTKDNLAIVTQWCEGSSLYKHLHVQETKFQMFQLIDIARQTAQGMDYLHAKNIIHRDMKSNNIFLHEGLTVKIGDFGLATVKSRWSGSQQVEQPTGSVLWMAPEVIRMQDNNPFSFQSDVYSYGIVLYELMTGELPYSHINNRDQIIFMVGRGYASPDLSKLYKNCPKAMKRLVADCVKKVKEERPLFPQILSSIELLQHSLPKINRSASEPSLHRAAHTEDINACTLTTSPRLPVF
Serine/threonine-protein kinase B-raf (Homo sapiens, UniProt P15056, V600E), sequence (P15056 2-766 V600E limits assumed): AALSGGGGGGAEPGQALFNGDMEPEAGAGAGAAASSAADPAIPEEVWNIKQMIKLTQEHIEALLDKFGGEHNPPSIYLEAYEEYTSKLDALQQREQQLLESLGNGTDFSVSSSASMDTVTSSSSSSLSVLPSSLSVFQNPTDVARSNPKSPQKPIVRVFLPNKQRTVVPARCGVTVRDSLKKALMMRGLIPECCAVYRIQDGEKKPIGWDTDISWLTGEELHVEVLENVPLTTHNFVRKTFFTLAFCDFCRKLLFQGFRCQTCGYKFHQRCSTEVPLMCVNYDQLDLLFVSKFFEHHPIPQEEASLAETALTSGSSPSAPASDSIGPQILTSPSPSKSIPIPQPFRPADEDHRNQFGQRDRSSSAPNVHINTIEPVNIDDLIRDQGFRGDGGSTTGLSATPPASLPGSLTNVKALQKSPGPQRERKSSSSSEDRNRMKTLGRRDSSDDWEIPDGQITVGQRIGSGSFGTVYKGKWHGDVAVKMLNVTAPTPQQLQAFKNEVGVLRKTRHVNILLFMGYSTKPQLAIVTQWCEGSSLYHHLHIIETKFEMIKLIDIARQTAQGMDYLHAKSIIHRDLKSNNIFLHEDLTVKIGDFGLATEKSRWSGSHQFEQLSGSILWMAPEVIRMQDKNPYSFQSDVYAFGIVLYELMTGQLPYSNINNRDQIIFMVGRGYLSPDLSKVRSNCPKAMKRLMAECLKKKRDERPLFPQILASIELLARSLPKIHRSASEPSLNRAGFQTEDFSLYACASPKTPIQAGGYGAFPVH

Row | SMILES | IC50 (SK-MEL-28 [4]) | IC50 (A-375) | viability at 10 µM (MDA-MB-468) | viability at 10 µM (T47D) | viability at 10 µM (SN12C) | viability at 10 µM (ACHN) | viability at 10 µM (786-0) | viability at 10 µM (SK-OV-3) | viability at 10 µM (OVCAR-4) | viability at 10 µM (OVCAR-3) | viability at 10 µM (UACC-62) | viability at 10 µM (SK-MEL-28 [5]) | viability at 10 µM (CCRF-CEM) | viability at 10 µM (HL-60(TB)) | viability at 10 µM (K562) | viability at 10 µM (MOLT-4) | viability at 10 µM (NCI-H460) | viability at 10 µM (COLO 205) | viability at 10 µM (HCT-29) | viability at 10 µM (KM12) | other results
1 | O=C(NCCNc1nccc(-c2c(-c3cccc(F)c3)nc3sccn23)n1)c1ccccc1 | 17 µM | 5.06 µM | 57.4% | 34.5% | 48.2% | 29.1% | 45.4% | 75.1% | 55.4% | 67.8% | 11.2% | 58.7% | 40.9% | 83.7% | 44% | 46.5% | 28.8% | 10.4% | 25.8% | 56.6% | IC50 [1]: 0.312 µM; IC50 [2]: 0.037 µM; IC50 [3]: 0.162 µM; IC50 (L132): 200 µM
2 | O=C(NCCNc1nccc(-c2c(-c3cccc(F)c3)nc3sccn23)n1)c1ccc(Cl)cc1 | 8.16 µM | 2.57 µM | 67.8% | 49% | 52.5% | 34.2% | 54.5% | 80.9% | 77.9% | 75.7% | 14.7% | 64.9% | 58.1% | 99.2% | 54.4% | 65.7% | 35.8% | 29.8% | 35.2% | 62.8% | IC50 [1]: 0.12 µM; IC50 [2]: 0.0272 µM; IC50 [3]: 0.105 µM
3 | Cc1ccc(S(=O)(=O)NCCCNc2nccc(-c3c(-c4cccc(F)c4)nc4sccn34)n2)cc1 | 9.5 µM | 8.38 µM | 78.2% | 34.5% | 70.5% | 65.5% | 78.4% | 75.2% | 66.2% | 89% | 47.8% | 106% | 62.7% | 119% | 52% | 53.5% | 65.1% | 55.5% | 37.3% | 67.3% | IC50 [1]: 0.143 µM; IC50 [2]: 0.089 µM; IC50 [3]: 0.182 µM
4 | O=S(=O)(NCCCNc1nccc(-c2c(-c3cccc(F)c3)nc3sccn23)n1)c1ccccc1 | 6.85 µM | 6.6 µM | 62.7% | 14.4% | 58.2% | 54.1% | 74% | 71.5% | 54.8% | 74.9% | 26.8% | 83.4% | 44.1% | 101% | 34.3% | 37.1% | 65.3% | 29% | 32.9% | 62.1% | IC50 (L132): > 400 µM
5 | O=S(=O)(NCCCNc1nccc(-c2c(-c3cccc(F)c3)nc3sccn23)n1)c1ccc(Br)cc1 | 9.4 µM | 7.04 µM | 32.3% | 13.7% | 53.9% | 50.3% | 73.5% | 80.1% | 34.2% | 57.8% | 18.3% | 67% | 36.8% | 75.9% | 25.4% | 33.8% | 60.5% | 33.5% | 23.8% | 46.7% | IC50 [1]: 0.0186 µM; IC50 [2]: 0.0093 µM; IC50 [3]: 0.0229 µM
6 | O=S(=O)(NCCCNc1nccc(-c2c(-c3cccc(F)c3)nc3sccn23)n1)c1ccc(Cl)cc1 | 8.45 µM | 5.9 µM | 63.6% | 25.6% | 65.9% | 60% | 83.6% | 78.1% | 61.4% | 79.8% | 40.4% | 92.3% | 46.6% | 106% | 31.7% | 48.3% | 75.4% | 41.3% | 36.9% | 72.7% | IC50 [1]: 0.034 µM; IC50 [2]: 0.0162 µM; IC50 [3]: 0.0496 µM
7 | O=S(=O)(NCCNc1nccc(-c2c(-c3cccc(F)c3)nc3sccn23)n1)c1ccc(Br)cc1 | 13.5 µM | 13.5 µM | 78.3% | 30.5% | 42.9% | 30.2% | 50.6% | 77.3% | 47% | 62.4% | 35.8% | 69.1% | 51% | 90.5% | 38.7% | 35.7% | 27.8% | 36.4% | 28.2% | 42.5% | –
8 | O=S(=O)(NCCNc1nccc(-c2c(-c3cccc(F)c3)nc3sccn23)n1)c1ccc(C(F)(F)F)cc1 | 8.45 µM | 7.44 µM | 71.3% | 62.5% | 89.7% | 82.2% | 82.1% | 71.8% | 85.4% | 92.4% | 73.3% | 114% | 80.6% | 121% | 73.1% | 57.5% | 94.7% | 68.3% | 62.8% | 80.6% | IC50 [1]: 0.0884 µM; IC50 [2]: 0.0223 µM; IC50 [3]: 0.0852 µM
9 | O=S(=O)(NCCNc1nccc(-c2c(-c3cccc(F)c3)nc3sccn23)n1)c1ccc(F)cc1 | 9.45 µM | 9.45 µM | 63.1% | 40.4% | 49.2% | 35.8% | 58.7% | 79.9% | 59.3% | 67.2% | 44.4% | 81.1% | 54.7% | 95.1% | 38.8% | 41.1% | 35% | 39.5% | 28.7% | 40.1% | –
10 | O=S(=O)(NCCCNc1nccc(-c2c(-c3cccc(F)c3)nc3sccn23)n1)c1ccc(F)cc1 | > 20 µM | 14.5 µM | 77.4% | 18.6% | 71.5% | 64.2% | 73.6% | 81.6% | 65.7% | 83.5% | 35.4% | 96.9% | 53.7% | 103% | 41.6% | 47.1% | 87.8% | 43.7% | 46.2% | 62.7% | –
